Test results published in patent US7923440B2, “Method of treating or preventing immune mediated disorders and pharmaceutical formulation for use therein” (Pantarhei Bioscience B.V., priority 2002, dated 2011).

Experiments:
[1] = tested on: estrogen receptors in the human endometrium; conditions: cited from earlier work
uterus = conditions: continuous administration from a subcutaneous depot, Martucci et al. 1977; cited from earlier work
[2] = tested on: DBA-1 mice developing collagen induced arthritis (CIA); assay: Collagen induced arthritis (CIA) in female DBA-1 mice; type: in vivo, mouse
[3] = tested on: B10.PL mice with experimental autoimmune encephalomyelitis (EAE); assay: MBP induced EAE in B10.PL mice; type: in vivo, mouse
[4] = tested on: SJL/J mice with experimental autoimmune encephalomyelitis (EAE); assay: PLP139-151 induced EAE in SJL/J mice, oral treatment; type: in vivo; conditions: for EAE incidence / mean cumulative EAE score versus vehicle / mean cumulative EAE score: day 0-42; for mean cumulative EAE score: vehicle 17.4±5.0; for clinical EAE score in second phase (relapse): day 26 until day 42; for mean maximal clinical (disability) score: vehicle 1.8±0.3; for mean day of onset of EAE: vehicle day 12
[5] = biological target: T1, rat uterine cytosol estrogen receptor (Rattus norvegicus, UniProt P06211); conditions: Martucci et al. 1976; cited from earlier work
T1 construct: rat uterine cytosol estrogen receptor; host or cells: rat uterus, cytosol
T1 sequence (P06211 1-600): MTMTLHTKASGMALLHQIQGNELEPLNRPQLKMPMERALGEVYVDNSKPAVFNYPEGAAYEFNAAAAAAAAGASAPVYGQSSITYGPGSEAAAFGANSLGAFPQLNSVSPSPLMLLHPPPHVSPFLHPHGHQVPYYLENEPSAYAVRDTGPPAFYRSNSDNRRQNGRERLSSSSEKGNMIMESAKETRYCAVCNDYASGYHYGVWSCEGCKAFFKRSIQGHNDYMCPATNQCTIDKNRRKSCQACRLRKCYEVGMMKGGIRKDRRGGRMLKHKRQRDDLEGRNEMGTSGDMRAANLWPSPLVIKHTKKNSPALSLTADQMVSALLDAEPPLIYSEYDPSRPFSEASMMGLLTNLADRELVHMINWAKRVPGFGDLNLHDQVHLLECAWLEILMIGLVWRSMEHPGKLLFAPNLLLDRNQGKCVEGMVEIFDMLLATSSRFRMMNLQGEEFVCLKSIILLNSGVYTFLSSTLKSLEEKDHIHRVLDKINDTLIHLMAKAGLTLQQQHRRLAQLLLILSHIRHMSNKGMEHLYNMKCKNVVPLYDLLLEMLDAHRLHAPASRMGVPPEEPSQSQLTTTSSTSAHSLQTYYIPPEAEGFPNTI

[6] = tested on: male DBA/1 mice with collagen induced arthritis (CIA); assay: Collagen induced arthritis (CIA) in male DBA/1 mice, oral treatment; type: in vivo, mouse; conditions: for average day of disease onset (arthritis): vehicle 25.4±0.64
Description: The ability of estetrol to alleviate the severity of immune mediated disorders and its possible side-effects were evaluated and compared with dexamethasone in mice developing collagen induced arthritis (CIA), which is another experimental system of autoimmune and chronic inflammatory disease, representing human arthritic diseases, particularly rheumatoid arthritis (RA).
Arthritis was induced in male DBA/1 mice using a two-step immunization protocol (Joosten et al., “Dual role of IL-12 in early and late stages of murine collagen type II arthritis”. J Immunol 1997; 159:4094-4102; Joosten et al., “IL-1β blockade prevents cartilage and bone destruction in murine type II collagen-induced arthritis, whereas TNFα blockade only ameliorates joint inflammation”. J Immunol 1999; 163:5049-55). This strain is highly susceptible to CIA induced with bovine type II collagen. On day 0, mice were immunized with bovine type II collagen (100 μg) emulsified in Freund's complete adjuvant (four subcutaneous injections in the back). On day 21, mice were boosted with an i.p. injection of 100 μg collagen type II diluted in PBS.
The effect of oral treatment with estetrol on collagen-induced arthritis was studied in a 6-week study design. From day 22 until the end of the study (day 42), the animals were treated once daily with vehicle (hydroxypropyl-beta-cyclodextrin in a 20% wt/vol solution in water) serving as negative control or four different dosages of estetrol (3 mg/kg, 1 mg/kg, 0.3 mg/kg and 0.1 mg/kg). Dexamethasone (1 mg/kg), was chosen as a positive control because it is a well studied corticosteroid that reduces swelling and inflammation and is used in a variety of disorders such as skin diseases (psoriasis, hives), allergic conditions, breathing problems, cancer, blood disorders (anemia), digestive problems, eye disorders and for the treatment of arthritis. Although effective as an anti-inflammatory agent, dexamethasone is also known to induce a number of side effects, which amongst others include in humans the induction of osteoporosis, reduced adrenal function, dizziness, nausea, indigestion, increased appetite, weight gain due to enhanced water retention, weakness and/or sleep disturbances. In addition, systemic dexamethasone treatment in rodents results in strong catabolic effects that can be easily observed as weight loss (Orzechowski et al. 2002, “Rats with a glucocorticoid-induced catabolic state show symptoms of oxidative stress and spleen atrophy: the effects of age and recovery”. J Vet Med A Physiol Pathol Clin Med; 49:256-63).
All groups used in the study consisted of 13 mice. During the study animals were weighed and monitored for clinical signs of arthritis. Scoring of disease severity (clinical arthritis score) was performed according to scoring system described by Joosten et al. 1997 (J. Immunol., 159:4094-4102) and Joosten et al. 1999 (J. Immunol., 163:5049-55).
Basic statistical analyses were performed as follows: The significance of differences between all treatment groups in the main clinical outcome parameters was tested using analysis of variance (ANOVA). Each significant ANOVA was followed by post hoc Tukey tests to determine the significance of the difference between each treatment group and the control group. Furthermore, linear regression analysis was used to study the dose-dependency of the effects of treatment with estetrol. All statistical analysis were performed using statistical software program SPSS 10.0 for Windows (SPSS Inc., Chicago, Ill., USA).

[7] = ovariectomized female DBA-1 mice, sc and oral 0.1-3.0 mg/kg/day, 60 days
[8] = ovariectomized female B10.PL mice, sc and oral 0.1-3.0 mg/kg/day, 40 days

C[C@]12CC[C@@H]3c4ccc(O)cc4CC[C@H]3[C@@H]1[C@@H](O)[C@@H](O)[C@@H]2O [E4, 1,3,5 (10)-estratrien-3,15α,16α,17β-tetrol]
relative binding constant compared to 17β-estradiol (100%) ([1]; Tseng et al. 1976): 6.25% | Relative binding to estrogen receptors, of 17β-estradiol ([1]; Tseng et al. 1978): 1.5% | uterotrophic activity (uterus): very weak uterotrophic activity | symptoms and severity of CIA ([2]; non-castrated female DBA-1, daily sc and/or oral): dose-dependently alleviate symptoms and severity of CIA | number of afflicted animals and/or severity of CIA symptoms [2, 7]: dose-dependently reduced | onset of CIA symptoms [2, 7]: dose-dependent effects in delaying the onset of CIA symptoms | symptoms and severity of EAE ([3]; non-castrated female and male B10.PL mice, daily sc and/or oral): dose-dependently alleviate symptoms and severity of EAE | number of afflicted animals and/or severity of EAE symptoms [3, 8]: dose-dependently reduced | onset of EAE disease symptoms [3, 8]: dose-dependent effects in delaying the onset of EAE disease symptoms | disease onset of EAE versus vehicle ([4]; oral 0.1 mg/kg/day): trend of delayed disease onset as compared to vehicle-treated mice, but this was not statistically significant | mean maximal clinical score versus vehicle ([4]; oral 0.1 mg/kg/day): did not show statistically significant differences | EAE incidence ([4]; oral 0.1 mg/kg/day): 70% | mean cumulative EAE score versus vehicle ([4]; oral 0.1 mg/kg/day): did not show statistically significant differences | disease onset of EAE versus vehicle ([4]; oral 0.3 mg/kg/day): trend of delayed disease onset as compared to vehicle-treated mice, but this was not statistically significant | mean maximal clinical score versus vehicle ([4]; oral 0.3 mg/kg/day): did not show statistically significant differences | EAE incidence ([4]; oral 0.3 mg/kg/day): 80% | mean cumulative EAE score versus vehicle ([4]; oral 0.3 mg/kg/day): did not show statistically significant differences | EAE incidence ([4]; oral 1 mg/kg/day): 33% | mean cumulative EAE score ([4]; oral 1 mg/kg/day): 3.9±1.8 | clinical EAE score in second phase (relapse) ([4]; oral 1 mg/kg/day): little evidence of disease activity | mean maximal clinical (disability) score ([4]; oral 1 mg/kg/day): 0.9±0.3 | mean day of onset of EAE ([4]; oral 1 mg/kg/day): 14.7 days | EAE incidence ([4]; oral 3 mg/kg/day): 40% | mean cumulative EAE score ([4]; oral 3 mg/kg/day): 5.8±2.9 | clinical EAE score in second phase (relapse) ([4]; oral 3 mg/kg/day): little evidence of disease activity | mean maximal clinical (disability) score ([4]; oral 3 mg/kg/day): 0.8±0.3 | mean day of onset of EAE ([4]; oral 3 mg/kg/day): 15.7 days | side-effects (clinical symptoms other than EAE) ([4]; oral once daily 0.1-3 mg/kg, 42 days): did not induce any significant side-effects | relative binding affinity, of 17β-estradiol (100%) [5]: 0.5% | average day of disease onset (arthritis) ([6]; oral 0.1 mg/kg): 25.8 days | average day of disease onset (arthritis) ([6]; oral 0.3 mg/kg): 26.0 days | increase in disease incidence versus vehicle ([6]; oral 1.0 mg and 3.0 mg/kg groups): clearly delayed | average day of disease onset (arthritis) ([6]; oral 1.0 mg/kg): 28.2 days | body weight, % of initial weight (day 21) ([6]; oral 3.0 mg/kg, day 28): 99.3% | body weight, % of initial weight (day 21) ([6]; oral 3.0 mg/kg, day 35): 96.7% | body weight, % of initial weight (day 21) ([6]; oral 3.0 mg/kg, day 42): 97.9% | average day of disease onset (arthritis) ([6]; oral 3.0 mg/kg): 30.7 days | average cumulative arthritis score ([6]; oral 0.1-3 mg/kg, day 21 to 42): dose-dependently reduced and significantly different as compared to vehicle-treated animals | development of macroscopical arthritis score ([6]; oral 0.1-3 mg/kg, day 22-42): dose-dependently reduced | weight loss ([6]; oral, lower three doses (0.1, 0.3 and 1.0 mg/kg)): comparable to the negative and positive control animal groups
